According to article PMC3805374 (Life sciences, 2013):

Legend:
FLAG-mouse DOPR = FLAG-mouse DOPR (Mus musculus, UniProt P32300); type: biochemical; conditions: CHO-FLAG-DOPR/HA-D1R cells pretreated with 10 μM for 30 min, n=3
D1R = D1R (Rattus norvegicus, UniProt P18901); assay: cAMP level in NG108-15/HA-D1R and CHO-FLAG-DOPR/HA-D1R cells; type: cell-based; conditions: NG108-15/HA-D1R cells and CHO-FLAG-DOPR/HA-D1R cells; data not shown
endogenous DOPR = endogenous DOPR (Mus musculus, UniProt P32300); assay: DPDPE-stimulated [35S]GTPγS binding to membranes of NG 108-15-HA-D1R cells; type: biochemical, mouse neuroblastoma × rat glioma hybrid; conditions: NG 108-15-HA-D1R cells pretreated with 10 μM for 30 min, n=3
ERK1/2 phosphorylation = assay: Immunoblot analysis of phosphorylated ERK1/2 in CHO-FLAG-DOPR/HA-D1R cells; type: cell-based, Chinese hamster; conditions: 10 μM for 30 min
FLAG-mDOPR [1] = biological target: T1, FLAG-mDOPR (Mus musculus, UniProt P32300); assay: Phosphorylation of the DOPR; type: cell-based; conditions: CHO-FLAG-DOPR/HA-D1R cells; 10 μM for 30 min
FLAG-mDOPR [2] = biological target: T1, FLAG-mDOPR; type: cell-based; conditions: 10 μM pretreatment for 30 min or 24 h

T1 sequence (P32300 whole entry): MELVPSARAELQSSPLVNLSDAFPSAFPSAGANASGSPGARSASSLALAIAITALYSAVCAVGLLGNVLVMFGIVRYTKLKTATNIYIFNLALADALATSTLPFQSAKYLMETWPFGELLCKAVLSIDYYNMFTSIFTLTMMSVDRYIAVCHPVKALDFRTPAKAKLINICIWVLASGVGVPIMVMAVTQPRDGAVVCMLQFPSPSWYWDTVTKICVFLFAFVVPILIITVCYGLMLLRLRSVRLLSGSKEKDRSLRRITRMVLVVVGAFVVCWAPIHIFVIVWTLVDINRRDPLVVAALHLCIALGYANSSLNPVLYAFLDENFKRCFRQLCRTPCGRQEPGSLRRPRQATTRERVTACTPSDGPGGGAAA
Sequence of D1R (P18901 whole entry): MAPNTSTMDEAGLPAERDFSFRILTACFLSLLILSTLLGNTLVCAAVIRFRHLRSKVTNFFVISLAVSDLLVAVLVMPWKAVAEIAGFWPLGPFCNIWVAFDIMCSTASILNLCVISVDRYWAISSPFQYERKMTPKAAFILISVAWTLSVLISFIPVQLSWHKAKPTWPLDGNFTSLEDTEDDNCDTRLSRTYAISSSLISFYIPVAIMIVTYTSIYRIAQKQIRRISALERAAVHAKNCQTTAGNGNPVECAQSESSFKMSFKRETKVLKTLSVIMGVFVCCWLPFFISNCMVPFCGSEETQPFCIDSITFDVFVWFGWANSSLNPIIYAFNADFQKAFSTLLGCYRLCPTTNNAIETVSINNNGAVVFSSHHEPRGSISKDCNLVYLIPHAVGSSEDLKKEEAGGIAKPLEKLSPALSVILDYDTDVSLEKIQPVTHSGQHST
Sequence of FLAG-mouse DOPR (P32300 whole entry): as the sequence (P32300 whole entry) above
Sequence of endogenous DOPR (P32300 whole entry): as above

How did the “Basal [35S]GTPγS binding after pretreatment” value (FLAG-mouse DOPR) turn out when `Br.C=CCN1CCc2c(cc(O)c(O)c2Cl)C(c2ccccc2)C1` (racemic) [SKF-82958, (±)-chloro-APB HBr] was run?
The value was 42.6 ± 7.0 fmol/mg protein.

And the cAMP level (D1R)?
The cAMP level was “dose-dependently increased cAMP level”.

And the “Basal [35S]GTPγS binding after pretreatment” value (endogenous DOPR)?
The value was 14.5 ± 1.9 fmol/mg protein.

What about the “ERK1/2 phosphorylation compared with the control” value (ERK1/2 phosphorylation) of the same molecule?
The value was “produced a marked increase in ERK1/2 phosphorylation”.

And the “Phosphorylation of the DOPR” value (FLAG-mDOPR [1])?
Its value is “did not induce phosphorylation of the DOPR”.

What about the “Effect on total or cell surface DOPRs” value (FLAG-mDOPR [2]) of the same molecule?
The value was “did not affect total or cell surface DOPRs”.
